“Also recorded” adds a separate entry of the source. Where no end group is shown, it is not given here.
How the values were obtained:
Assay type in all cases: cell-based
human Ntera nerve cells = assay: NTera nerve fiber growth assay (assay method 2); conditions: for inhibition of nerve fiber growth of human NTera cells: peptide concentration 30 μg/ml (higher concentration); for activity of RGM A peptides in NTera growth assay: FIG. 6A and 6B; for activity in NTera nerve fiber growth assay: peptide concentration 10 μg/ml (FIG. 6B)
Procedure: The human pluripotent carcinoma cell line Ntera (DSMZ ACC527) is an established cell culture model. In this case, axons grow out of cell aggregates and form a corona of axons around the respective aggregate.
For this purpose, 2.5×10^6 Ntera cells were seeded in a 175 cm^2 bottle and differentiated in 10 μM retinoic acid (Sigma) (medium: D-MEM (Gibco/Invitrogen 31966-021), 10% fetal calf serum, 100 u/ml penicillin, 100 μg/ml streptomycin (both Gibco/Invitrogen)) for 3 weeks. Differentiated cells were then divided 1:6 in new bottles and cultured without retinoic acid for a further 2 days. Neuronal cells adhering to the resulting cell lawn were detached by capping and aggregated by slow shaking in Neurobasal medium (Neurobasal Medium (Gibco/Invitrogen 21103-049), 2 mM L-glutamine (Gibco/Invitrogen 25030-024), 100 u/ml penicillin, 100 μg/ml streptomycin (both Gibco/Invitrogen) in a shaken flask overnight (in an incubator).
The next day, Ntera aggregates were seeded in poly-D-lysine and laminin (Sigma) (10 μg/ml) 96-well plates (Biocoat Poly-D-Lysine Cellware 96-Well Black/Clear Plate (Becton Dickinson #35 6640). The inhibitory effect of RGM peptides and fragments was analyzed by adding various concentrations of the substances to be tested.

[1] = system: Neogenin-expressing HEK293 cells; assay: Fragment analysis with neogenin-expressing HEK293 cells (semiquantitative dot-blot of producing clones); conditions: stably transfected HEK293 clones
Excerpt: It was previously known that the active, growth-inhibiting activity of the RGM A protein from chickens is located in the region between amino acid position 150 and 350.
Fragments of the human RGM A protein which cover this range were therefore prepared. HEK293 cells which carry the RGM receptor endogenously on their surface were then transfected with these fragments in order to prepare clonal cell cultures which produce the individual protein fragments and release them into the culture medium. All the fragments were produced as fusion proteins with attached alkaline phosphatase enzyme. The presence of the active domain in these cells should make itself noticeable by: less cellular proliferation, increased cell death and/or altered cell-substrate adhesion.
Increased cell death and less proliferation have, of course, a direct effect on the produced amount of the active fragment. The amount of the produced fragments was assessed with the aid of a semiquantitative dot-blot assay.
The RGM A fragments prepared as in preparation example 1 were introduced into HEK293 cells. […]
In addition, the ratio of strongly to non-producing clones was determined.

rat cortical neurons = assay: Neuronal outgrowth test with rat cortical neurons (assay method 1)
Procedure: The effect of RGM peptides in vitro was investigated by carrying out neuronal outgrowth tests. For this purpose, rat cortical neurons were prepared using the following media:
Cortical neurons were obtained by sacrificing pregnant rats by cervical dislocation, opening the abdominal cavity thereof, removing the uterus with the embryos (embryonic day 18 (E18)) and washing in PBS. Microdissection scissors were used to cut open the uterus longitudinally, and the embryos were removed and exposed. The embryos were sacrificed by throat-cutting, the brain was removed and the forebrain cortex was dissected. […] The cells were counted in a Neubauer counting chamber, and the number of cells was adjusted to about 400 000 cells/0.2 ml in MM and preaggregated. […] 24-48 h later, the axonal outgrowths were initially assessed by examination under a light microscope, and the cultures were then fixed by adding 100 μl of 4% paraformaldehyde solution and stored at 4° C. for at least 12 hours. […] The fluorescence-labeled secondary antibody (Jackson ImmunoResearch, Cy3 conjugated Affinity Pure Donkey Anti Mouse #715-165-151) was diluted 1:500 in 1% bovine serum albumin solution in PBS, which additionally comprised 0.5 μg/ml bisbenzimide (H33258) to visualize the cell nuclei, and 50 μl of this dilution were incubated per well at room temperature for 1-2 h or at 4° C. overnight. […]

Fragment 5: human RGM A fragment amino acids 369-422, expressed in HEK293 as AP fusion protein (PVEDLYYQACVFDLLTTGDVNFTLAAYYALEDVKMLHSNKDKLHLYERTRDLPG; also: alkaline phosphatase fusion; UniProt Q96B86 369-422, looked up, fragment)
activity (inhibitory for axon growth) of RGM A fragments in NTera outgrowth assay (human Ntera nerve cells; stated concentrations (FIG. 5B), overall result): inactive
Proportion of strongly producing cell clones [1]: 16%
Ratio "S producer" versus "0 producer" ([1]; low value = active fragment): 0.63

Peptide 4: synthetic RGM A peptide AA 378-400 of SEQ ID NO: 2 (CVFDLLTTGDVNFTLAAYYALED; listed as Homo sapiens)
activity on nerve fiber growth of cortical neurons (axon growth index) (rat cortical neurons; concentrations 0 to 30 μg/ml (FIG. 3C)): no activity
influence on nerve fiber growth of rat neuronal cells (rat cortical neurons; peptide concentration 10 μg/ml, fluorescence micrographs (FIG. 3A)): inactive
inhibition of nerve fiber growth of human NTera cells (human Ntera nerve cells): not

Peptide 5-Ak: RGM A peptide 242-259, AFVDGSKNGGDKHGANSL (SEQ ID NO: 30)
activity of RGM A peptides in NTera growth assay (human Ntera nerve cells; overall result): Inactive or only weakly active
activity in NTera nerve fiber growth assay (human Ntera nerve cells): inactive

Peptide 6-Ak: RGM A peptide 300-316, VVNAVEDWDSQGLYLC (SEQ ID NO: 28)
activity of RGM A peptides in NTera growth assay (human Ntera nerve cells; overall result): Inactive or only weakly active
activity in NTera nerve fiber growth assay (human Ntera nerve cells): inactive
inhibition of nerve fiber growth of human NTera cells (human Ntera nerve cells): distinct trend in the direction of inhibition of nerve fiber growth; also recorded: tendency to inhibit growth

Peptide 7-Ak: RGM A peptide 217-234, TIIFKNFQECVDQKVYQA (SEQ ID NO: 29)
activity of RGM A peptides in NTera growth assay (human Ntera nerve cells; overall result): Inactive or only weakly active
activity in NTera nerve fiber growth assay (human Ntera nerve cells): inactive
inhibition of nerve fiber growth of human NTera cells (human Ntera nerve cells): distinct trend in the direction of inhibition of nerve fiber growth; also recorded: tendency to inhibit growth

Peptide Down-1: RGM A peptide 260-275, KITEKVSGQHVEIQAK (SEQ ID NO: 26)
activity of RGM A peptides in NTera growth assay (human Ntera nerve cells; overall result): large reduction in nerve fiber growth
inhibition of nerve fiber growth of human NTera cells (human Ntera nerve cells): inhibited nerve fiber growth highly significantly

Peptide Up-1: RGM A peptide 276-291, YIGTTIVVRQVGRYLT (SEQ ID NO: 27)
activity of RGM A peptides in NTera growth assay (human Ntera nerve cells; overall result): large reduction in nerve fiber growth
inhibition of nerve fiber growth of human NTera cells (human Ntera nerve cells): inhibited nerve fiber growth highly significantly
